Assay results from ChEMBL document CHEMBL4507304, “Data for DCP probe TP-021” (2021).

Legend:
[1] = molecular target: Mitogen-activated protein kinase kinase kinase 7 (Homo sapiens) (UniProt O43318); conditions: Compound concentration 1000.0 nM
[2] = molecular target: Casein kinase I isoform delta (Homo sapiens) (UniProt P48730); conditions: Compound concentration 1000.0 nM
[3] = molecular target: 5-hydroxytryptamine receptor 1D (Homo sapiens) (UniProt P28221); conditions: Compound concentration 10.0 uM
[4] = molecular target: Serine/threonine-protein kinase ULK2 (Homo sapiens) (UniProt Q8IYT8); conditions: Compound concentration 1000.0 nM
[5] = molecular target: Serine/threonine-protein kinase mTOR (Homo sapiens) (UniProt P42345); conditions: Compound concentration 1000.0 nM
[6] = molecular target: Tyrosine-protein kinase receptor UFO (Homo sapiens) (UniProt P30530); conditions: Compound concentration 1000.0 nM
[7] = molecular target: Serine/threonine-protein kinase TAO1 (Homo sapiens) (UniProt Q7L7X3); conditions: Compound concentration 1000.0 nM
[8] = molecular target: Cyclin-dependent kinase 11A (Homo sapiens) (UniProt Q9UQ88); conditions: Compound concentration 1000.0 nM
[9] = molecular target: Leukocyte tyrosine kinase receptor (Homo sapiens) (UniProt P29376); conditions: Compound concentration 1000.0 nM
[10] = test system: Mast/stem cell growth factor receptor Kit (Homo sapiens), P10721 [D816V]; conditions: Compound concentration 1000.0 nM
[11] = molecular target: 5-hydroxytryptamine receptor 5A (Homo sapiens) (UniProt P47898); conditions: Compound concentration 10.0 uM
[12] = molecular target: Tyrosine-protein kinase Fes/Fps (Homo sapiens) (UniProt P07332); conditions: Compound concentration 1000.0 nM
[13] = molecular target: Phosphatidylinositol 4-phosphate 5-kinase type-1 gamma (Homo sapiens) (UniProt O60331); conditions: Compound concentration 1000.0 nM
[14] = molecular target: Serine/threonine-protein kinase 16 (Homo sapiens) (UniProt O75716); conditions: Compound concentration 1000.0 nM
[15] = molecular target: Tyrosine-protein kinase ABL2 (Homo sapiens) (UniProt P42684); conditions: Compound concentration 1000.0 nM
[16] = molecular target: Cyclin-G-associated kinase (Homo sapiens) (UniProt O14976); conditions: Compound concentration 1000.0 nM
[17] = molecular target: Mitogen-activated protein kinase kinase kinase 3 (Homo sapiens) (UniProt Q99759); conditions: Compound concentration 1000.0 nM
[18] = molecular target: Atypical kinase COQ8A, mitochondrial (Homo sapiens) (UniProt Q8NI60); conditions: Compound concentration 1000.0 nM
[19] = molecular target: Muscarinic acetylcholine receptor M4 (Homo sapiens) (UniProt P08173); conditions: Compound concentration 10.0 uM
[20] = molecular target: Serine/threonine-protein kinase RIO3 (Homo sapiens) (UniProt O14730); conditions: Compound concentration 1000.0 nM
[21] = molecular target: MAP/microtubule affinity-regulating kinase 4 (Homo sapiens) (UniProt Q96L34); conditions: Compound concentration 1000.0 nM
[22] = molecular target: Histamine H1 receptor (Homo sapiens) (UniProt P35367); conditions: Compound concentration 10.0 uM
[23] = molecular target: Mitogen-activated protein kinase kinase kinase 1 (Homo sapiens) (UniProt Q13233); conditions: Compound concentration 1000.0 nM
[24] = molecular target: Ribosomal protein S6 kinase alpha-3 (Homo sapiens) (UniProt P51812); conditions: Compound concentration 1000.0 nM
[25] = molecular target: Beta-2 adrenergic receptor (Homo sapiens) (UniProt P07550); conditions: Compound concentration 10.0 uM
[26] = molecular target: Aurora kinase B (Homo sapiens) (UniProt Q96GD4); conditions: Compound concentration 1000.0 nM
[27] = molecular target: Sigma non-opioid intracellular receptor 1 (Homo sapiens) (UniProt Q99720); conditions: Compound concentration 10.0 uM
[28] = molecular target: Mitogen-activated protein kinase 10 (Homo sapiens) (UniProt P53779); conditions: Compound concentration 1000.0 nM
[29] = molecular target: Inhibitor of nuclear factor kappa-B kinase subunit alpha (Homo sapiens) (UniProt O15111); conditions: Compound concentration 1000.0 nM
[30] = molecular target: 5-hydroxytryptamine receptor 1A (Homo sapiens) (UniProt P08908); conditions: Compound concentration 10.0 uM
[31] = molecular target: Serine/threonine-protein kinase D3 (Homo sapiens) (UniProt O94806); conditions: Compound concentration 1000.0 nM
[32] = test system: Tyrosine-protein kinase ABL1 (Homo sapiens), P00519 [H396P]; conditions: Compound concentration 1000.0 nM
[33] = molecular target: cAMP-dependent protein kinase catalytic subunit alpha (Homo sapiens) (UniProt P17612); conditions: Compound concentration 1000.0 nM
[34] = molecular target: Mitogen-activated protein kinase 3 (Homo sapiens) (UniProt P27361); conditions: Compound concentration 1000.0 nM
[35] = molecular target: Calcium/calmodulin-dependent protein kinase type II subunit alpha (Homo sapiens) (UniProt Q9UQM7); conditions: Compound concentration 1000.0 nM
[36] = molecular target: Serine/threonine-protein kinase 4 (Homo sapiens) (UniProt Q13043); conditions: Compound concentration 1000.0 nM
[37] = molecular target: Serine/threonine-protein kinase 32A (Homo sapiens) (UniProt Q8WU08); conditions: Compound concentration 1000.0 nM
[38] = test system: Phosphatidylinositol 4,5-bisphosphate 3-kinase catalytic subunit alpha isoform (Homo sapiens), P42336 [H1047Y]; conditions: Compound concentration 1000.0 nM
[39] = molecular target: Proto-oncogene tyrosine-protein kinase Src (Homo sapiens) (UniProt P12931); conditions: Compound concentration 1000.0 nM
[40] = molecular target: Cyclin-dependent kinase-like 3 (Homo sapiens) (UniProt Q8IVW4); conditions: Compound concentration 1000.0 nM
[41] = molecular target: Death-associated protein kinase 2 (Homo sapiens) (UniProt Q9UIK4); conditions: Compound concentration 1000.0 nM
[42] = molecular target: Hormonally up-regulated neu tumor-associated kinase (Homo sapiens) (UniProt P57058); conditions: Compound concentration 1000.0 nM
[43] = molecular target: Calcium/calmodulin-dependent protein kinase type 1D (Homo sapiens) (UniProt Q8IU85); conditions: Compound concentration 1000.0 nM
[44] = molecular target: Mitogen-activated protein kinase kinase kinase 9 (Homo sapiens) (UniProt P80192); conditions: Compound concentration 1000.0 nM
[45] = test system: Epidermal growth factor receptor (Homo sapiens), P00533 [G719S]; conditions: Compound concentration 1000.0 nM

Sequence of Phosphatidylinositol 4,5-bisphosphate 3-kinase catalytic subunit alpha isoform (Homo sapiens), P42336 [H1047Y] (P42336 whole entry H1047Y, canonical isoform): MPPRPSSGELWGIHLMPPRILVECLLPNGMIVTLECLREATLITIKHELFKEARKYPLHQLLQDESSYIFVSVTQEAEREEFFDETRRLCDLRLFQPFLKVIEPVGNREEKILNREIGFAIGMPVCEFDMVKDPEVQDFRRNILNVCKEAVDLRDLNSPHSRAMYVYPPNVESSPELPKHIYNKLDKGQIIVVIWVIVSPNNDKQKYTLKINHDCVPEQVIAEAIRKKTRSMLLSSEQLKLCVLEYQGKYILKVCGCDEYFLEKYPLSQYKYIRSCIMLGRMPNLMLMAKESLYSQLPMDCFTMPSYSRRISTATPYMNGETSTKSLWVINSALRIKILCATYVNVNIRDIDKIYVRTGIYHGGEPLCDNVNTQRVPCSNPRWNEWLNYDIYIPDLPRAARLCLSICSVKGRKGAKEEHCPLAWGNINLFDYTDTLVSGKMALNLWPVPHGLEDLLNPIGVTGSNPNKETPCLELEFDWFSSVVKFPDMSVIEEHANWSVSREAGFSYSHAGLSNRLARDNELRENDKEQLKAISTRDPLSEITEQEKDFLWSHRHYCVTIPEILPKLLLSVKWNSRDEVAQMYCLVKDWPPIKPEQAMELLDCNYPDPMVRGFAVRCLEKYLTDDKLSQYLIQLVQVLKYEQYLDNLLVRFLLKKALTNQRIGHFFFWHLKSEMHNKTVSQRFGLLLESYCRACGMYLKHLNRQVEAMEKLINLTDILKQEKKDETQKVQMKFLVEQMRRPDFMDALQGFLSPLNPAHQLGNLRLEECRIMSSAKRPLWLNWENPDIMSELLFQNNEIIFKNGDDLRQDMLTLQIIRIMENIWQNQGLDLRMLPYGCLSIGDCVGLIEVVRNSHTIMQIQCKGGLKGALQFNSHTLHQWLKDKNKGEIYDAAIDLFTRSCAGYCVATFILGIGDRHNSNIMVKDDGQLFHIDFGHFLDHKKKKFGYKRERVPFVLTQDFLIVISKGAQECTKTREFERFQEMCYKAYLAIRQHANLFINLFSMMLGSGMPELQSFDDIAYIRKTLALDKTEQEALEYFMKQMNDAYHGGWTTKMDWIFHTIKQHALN
Sequence of Proto-oncogene tyrosine-protein kinase Src (Homo sapiens) (P12931 2-536 limits assumed): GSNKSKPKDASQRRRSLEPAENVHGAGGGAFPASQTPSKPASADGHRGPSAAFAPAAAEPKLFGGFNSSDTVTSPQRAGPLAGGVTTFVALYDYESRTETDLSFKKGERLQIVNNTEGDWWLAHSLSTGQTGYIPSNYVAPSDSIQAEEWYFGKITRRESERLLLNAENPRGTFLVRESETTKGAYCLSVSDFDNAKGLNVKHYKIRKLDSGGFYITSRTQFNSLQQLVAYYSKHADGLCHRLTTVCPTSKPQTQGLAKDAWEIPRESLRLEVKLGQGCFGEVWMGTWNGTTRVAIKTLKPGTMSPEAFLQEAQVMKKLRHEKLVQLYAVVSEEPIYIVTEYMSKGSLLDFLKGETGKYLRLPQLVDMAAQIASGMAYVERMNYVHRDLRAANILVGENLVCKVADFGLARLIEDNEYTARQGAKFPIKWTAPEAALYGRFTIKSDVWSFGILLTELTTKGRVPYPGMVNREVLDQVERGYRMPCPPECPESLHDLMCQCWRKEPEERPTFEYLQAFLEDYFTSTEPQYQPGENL
Sequence of Tyrosine-protein kinase ABL2 (Homo sapiens) (P42684 whole entry): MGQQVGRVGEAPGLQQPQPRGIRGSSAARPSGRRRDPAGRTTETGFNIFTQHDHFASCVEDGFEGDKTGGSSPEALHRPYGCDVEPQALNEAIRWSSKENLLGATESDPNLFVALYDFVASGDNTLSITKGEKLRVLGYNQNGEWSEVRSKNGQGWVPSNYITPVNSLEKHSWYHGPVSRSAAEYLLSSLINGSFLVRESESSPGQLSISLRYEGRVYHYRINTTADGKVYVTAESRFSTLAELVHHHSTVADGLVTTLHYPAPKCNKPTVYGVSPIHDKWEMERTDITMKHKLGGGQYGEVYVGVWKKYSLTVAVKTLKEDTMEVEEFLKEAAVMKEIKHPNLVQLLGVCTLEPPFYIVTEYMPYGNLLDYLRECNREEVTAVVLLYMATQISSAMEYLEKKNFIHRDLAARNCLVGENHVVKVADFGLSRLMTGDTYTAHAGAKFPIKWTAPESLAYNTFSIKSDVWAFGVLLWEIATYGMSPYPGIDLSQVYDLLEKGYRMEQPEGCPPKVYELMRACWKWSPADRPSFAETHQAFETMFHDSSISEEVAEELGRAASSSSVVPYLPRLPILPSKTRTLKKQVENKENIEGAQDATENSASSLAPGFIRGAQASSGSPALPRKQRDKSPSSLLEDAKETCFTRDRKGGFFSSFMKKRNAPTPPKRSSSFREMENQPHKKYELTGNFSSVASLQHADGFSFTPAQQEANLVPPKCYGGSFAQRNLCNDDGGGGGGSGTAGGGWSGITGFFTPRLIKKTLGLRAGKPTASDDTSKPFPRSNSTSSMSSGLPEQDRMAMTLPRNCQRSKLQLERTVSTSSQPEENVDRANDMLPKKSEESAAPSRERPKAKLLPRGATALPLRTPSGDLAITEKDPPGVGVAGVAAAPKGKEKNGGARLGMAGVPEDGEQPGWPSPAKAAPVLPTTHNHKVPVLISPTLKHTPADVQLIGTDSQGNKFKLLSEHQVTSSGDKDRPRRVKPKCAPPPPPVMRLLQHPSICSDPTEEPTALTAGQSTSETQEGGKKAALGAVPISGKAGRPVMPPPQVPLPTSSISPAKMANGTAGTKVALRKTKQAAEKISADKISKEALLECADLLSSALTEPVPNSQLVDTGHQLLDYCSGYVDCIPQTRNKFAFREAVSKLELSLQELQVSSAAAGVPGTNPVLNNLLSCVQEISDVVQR
Sequence of Mitogen-activated protein kinase 10 (Homo sapiens) (P53779 whole entry): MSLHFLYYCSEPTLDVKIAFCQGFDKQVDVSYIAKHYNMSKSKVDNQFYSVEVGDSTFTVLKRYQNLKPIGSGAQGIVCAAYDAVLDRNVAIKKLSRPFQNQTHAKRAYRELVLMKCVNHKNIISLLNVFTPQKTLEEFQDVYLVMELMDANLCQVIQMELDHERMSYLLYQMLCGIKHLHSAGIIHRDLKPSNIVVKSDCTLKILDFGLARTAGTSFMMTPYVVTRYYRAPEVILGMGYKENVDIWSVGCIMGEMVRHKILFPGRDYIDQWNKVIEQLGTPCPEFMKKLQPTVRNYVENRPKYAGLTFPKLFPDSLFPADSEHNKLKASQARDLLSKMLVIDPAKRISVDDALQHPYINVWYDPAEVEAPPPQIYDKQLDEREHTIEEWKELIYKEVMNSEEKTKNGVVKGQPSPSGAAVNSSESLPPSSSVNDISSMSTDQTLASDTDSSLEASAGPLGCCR
Sequence of Sigma non-opioid intracellular receptor 1 (Homo sapiens) (Q99720 whole entry): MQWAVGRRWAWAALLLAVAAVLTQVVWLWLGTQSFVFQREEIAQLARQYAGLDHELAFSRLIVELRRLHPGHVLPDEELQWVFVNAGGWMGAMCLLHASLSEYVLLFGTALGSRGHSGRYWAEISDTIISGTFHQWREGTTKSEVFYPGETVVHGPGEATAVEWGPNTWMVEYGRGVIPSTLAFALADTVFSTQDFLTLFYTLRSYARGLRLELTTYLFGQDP
Sequence of Mitogen-activated protein kinase kinase kinase 7 (Homo sapiens) (O43318 whole entry, canonical isoform): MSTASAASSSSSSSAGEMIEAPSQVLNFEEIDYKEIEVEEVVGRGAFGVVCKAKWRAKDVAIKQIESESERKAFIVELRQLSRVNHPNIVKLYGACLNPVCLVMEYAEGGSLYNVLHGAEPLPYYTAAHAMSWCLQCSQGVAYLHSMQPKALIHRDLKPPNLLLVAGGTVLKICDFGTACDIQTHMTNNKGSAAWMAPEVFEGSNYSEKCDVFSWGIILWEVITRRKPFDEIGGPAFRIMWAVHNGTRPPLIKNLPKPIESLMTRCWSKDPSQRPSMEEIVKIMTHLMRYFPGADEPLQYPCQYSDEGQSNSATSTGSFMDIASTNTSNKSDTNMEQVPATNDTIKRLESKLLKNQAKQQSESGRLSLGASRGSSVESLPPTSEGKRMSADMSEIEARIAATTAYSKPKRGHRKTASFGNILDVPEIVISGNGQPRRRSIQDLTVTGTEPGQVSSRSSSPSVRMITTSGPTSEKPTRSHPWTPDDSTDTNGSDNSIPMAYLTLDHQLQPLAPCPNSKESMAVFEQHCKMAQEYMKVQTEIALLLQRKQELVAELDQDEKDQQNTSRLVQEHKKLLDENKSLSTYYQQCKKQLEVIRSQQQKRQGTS
Sequence of MAP/microtubule affinity-regulating kinase 4 (Homo sapiens) (Q96L34 whole entry): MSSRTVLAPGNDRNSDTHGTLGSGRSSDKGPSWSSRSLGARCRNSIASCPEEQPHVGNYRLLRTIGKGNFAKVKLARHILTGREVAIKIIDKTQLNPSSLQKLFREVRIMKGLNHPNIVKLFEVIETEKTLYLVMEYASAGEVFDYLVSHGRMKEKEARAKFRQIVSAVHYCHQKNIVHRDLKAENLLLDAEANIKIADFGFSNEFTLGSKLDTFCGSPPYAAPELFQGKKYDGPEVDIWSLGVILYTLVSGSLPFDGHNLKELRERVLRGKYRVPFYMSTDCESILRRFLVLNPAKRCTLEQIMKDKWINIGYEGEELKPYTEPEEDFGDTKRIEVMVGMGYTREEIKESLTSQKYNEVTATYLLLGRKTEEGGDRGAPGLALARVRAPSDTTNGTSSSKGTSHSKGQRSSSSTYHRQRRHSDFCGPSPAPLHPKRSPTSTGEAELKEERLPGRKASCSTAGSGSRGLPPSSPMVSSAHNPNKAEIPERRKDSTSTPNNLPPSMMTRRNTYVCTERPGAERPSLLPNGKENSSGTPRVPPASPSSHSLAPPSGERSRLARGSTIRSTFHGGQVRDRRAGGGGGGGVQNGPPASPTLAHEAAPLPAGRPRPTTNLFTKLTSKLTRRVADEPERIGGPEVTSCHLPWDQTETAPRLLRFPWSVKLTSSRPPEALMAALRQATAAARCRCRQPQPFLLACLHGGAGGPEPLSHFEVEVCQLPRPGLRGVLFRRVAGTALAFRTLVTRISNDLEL

O=C1CCc2cc(Nc3cc(OC4CCOCC4)c([N+](=O)[O-])cc3Cl)ccc2N1
inactive: residual activity [1] 95% | residual activity [2] 90% | inhibition [3] 18.6% | residual activity [4] 99% | residual activity [5] 89% | residual activity [6] 96% | residual activity [7] 81% | residual activity [8] 100% | residual activity [9] 100% | residual activity [10] 100% | inhibition [11] 6.14% | residual activity [12] 100% | residual activity [13] 100% | residual activity [14] 93% | residual activity [15] 79% | residual activity [16] 100% | residual activity [17] 95% | residual activity [18] 100% | inhibition [19] 48.7% | residual activity [20] 100% | residual activity [21] 100% | inhibition [22] 17% | residual activity [23] 65% | residual activity [24] 100% | inhibition [25] -1.73% | residual activity [26] 86% | inhibition [27] 11.7% | residual activity [28] 98% | residual activity [29] 100% | inhibition [30] -4.09% | residual activity [31] 92% | residual activity [32] 85% | residual activity [33] 96% | residual activity [34] 78% | residual activity [35] 85% | residual activity [36] 100% | residual activity [37] 90% | residual activity [38] 100% | residual activity [39] 100% | residual activity [40] 79% | residual activity [41] 79% | residual activity [42] 93% | residual activity [43] 100% | residual activity [44] 90% | residual activity [45] 100%

N#Cc1ccc(Nc2ccc3[nH]c(=O)[nH]c3c2)c(Cl)c1
inactive: residual activity [1] 90% | residual activity [2] 100% | inhibition [3] 3.68% | residual activity [4] 99% | residual activity [5] 98% | residual activity [6] 100% | residual activity [7] 97% | residual activity [8] 97% | residual activity [9] 100% | residual activity [10] 88% | inhibition [11] -7.6% | residual activity [12] 100% | residual activity [13] 67% | residual activity [14] 91% | residual activity [15] 93% | residual activity [16] 100% | residual activity [17] 84% | residual activity [18] 100% | inhibition [19] 11.6% | residual activity [20] 100% | residual activity [21] 99% | inhibition [22] 14.7% | residual activity [23] 79% | residual activity [24] 87% | inhibition [25] -0.51% | residual activity [26] 85% | inhibition [27] 14% | residual activity [28] 100% | residual activity [29] 100% | inhibition [30] -5.44% | residual activity [31] 100% | residual activity [32] 95% | residual activity [33] 96% | residual activity [34] 95% | residual activity [35] 84% | residual activity [36] 100% | residual activity [37] 81% | residual activity [38] 100% | residual activity [39] 92% | residual activity [40] 80% | residual activity [41] 92% | residual activity [42] 98% | residual activity [43] 92% | residual activity [44] 100% | residual activity [45] 100%
